# Assay results from patent US20260328779A1, “METHODS AND COMPOSITIONS FOR THE DIAGNOSIS AND TREATMENT OF IGA NEPHROPATHY” (Beth Israel Deaconess Medical Center, Inc., priority 2022, published 2026).
# Entries after “also recorded” stand apart in the source; their conditions may differ.
# Tests used:
# [1] = system: anti-Tn IgM; assay: Inhibition of anti-Tn antibody binding to Tn glycopeptide array; set-up: species or system human; conditions: glycomimetic 20 mM, 30 min at RT, anti-Tn antibodies C3
# Method: The Tn glycopeptide microarray was prepared as previously described^77. Briefly, the glycopeptides printed on the microarray is as listed (FIG. 2). Purified anti-Tn antibodies (diluted to […] for IgM, and […] for IgG and IgA detection) in TSM binding buffer (20 mM Tris-HCl, pH 7.4, 150 mM NaCl, 2 mM CaCl2), 2 mM MgCl2, with 1% BSA and 0.05% Tween-20) were added to the respective array slides for 1 h at RT. Alexa Fluor #488-labeled goat anti-human IgM or goat anti-human IgG, or FITC-labeled goat anti-human IgA antibody at 1:400 dilution in TSM binding buffer was used for detection of IgM, IgG, and IgA within purified anti-Tn antibodies. Slides were analyzed on a Genepix^# 4300A microarray scanner (Molecular Devices). Images were analyzed with quantitation software (GenePix® Pro Microarray Analysis Software Ver. 7, Molecular Devices). For inhibition assay, a purified Tn(+)IgA1 produced from CosmcKO Dakiki cells was utilized (See Generation of CosmcKO Dakiki cells using CRISPR-Cas9 system for generating the antibody) to inhibit anti-Tn antibodies binding to microarray and Tn(−)IgA1 produced from Dakiki cells as a […]. Purified anti-Tn antibodies (Cl, 10 mg/ml) in TSM binding buffer was preincubated with 1 mg of purified Tn(+)IgA1, or Tn(−)IgA1 for 30 min at RT. […] Heat map and correlation map of binding preferences were analyzed using GLAD (Glycan Array Dashboard).
# [2] = system: primary human renal mesangial cells; assay: Inhibition of anti-Tn CICs-stimulated mesangial cell proliferation (Ki-67); format: cell-based; conditions: 30 min at RT
# Method: […] of serum was mixed with […] of Tn(+)matrix beads or mock beads overnight at 4° C. (10 rpm). Supernatant was collected after pelleting the beads at 500×g for 30 sec at 4° C. After two rounds of such sequential anti-Tn CICs immunodepletion (serum-ID) and its control (serum-Mock), collected serum was filtered by syringe filter unit (Cat #SLHP033RS, Millipore Sigma) before use. Cells were cultured at ~90% confluency in 96-well plate, and starved in Mesangial cell media (Cat #4201) with 0.5% FBS (Cat #0010) and 0.05× mesangial cell growth supplement (MsCGS, Cat #4252) from ScienCell for 24 h at 37° C. prior to stimulation. Cells were stimulated with 5% serum-Mock, 5% serum-ID with or without exogenous anti-Tn CICs (50 ng/[…]/well, total) for 24 h at 37° C. incubator. Cells were fixed with 4% PFA with 0.05% Triton-X-100 in PBS for 20 min at 4° C. Fixed cells were blocked with 5% (vol/vol) goat serum in PBS for 1 h at 4° C., and incubated with anti-Ki-67 antibody (SP6, rabbit IgG, Cat #CRM325B, Biocare Medical, diluted to 1:50) in PBS for 1 h at 4° C. Cells were washed 3× with chilled PBS, and incubated with Alexa Fluor #488-goat anti-rabbit IgG (Cat #A27034, Thermo Fisher Scientific) at 1:400 in PBS for 1 h at 4° C. in the dark. Cells were washed 3× with chilled PBS, and stained with DAPI (diluted to 0.1 mM) in PBS for 10 min at RT, and analyzed using a microscope (AMG EVOS FL digital inverted microscope, Fisher Scientific, ×400 magnification). For inhibition assay, anti-Tn CICs was preincubated with 100 mM α-methylGalNAc, or α-methylGlcNAc in PBS for 30 min at RT. Serum from three healthy controls (C3, C6, and pooled C1-C10; Cmix) and three IgAN (P5, P10, and pooled P1-P10; Pmix) were used in this assay. […] of serum with IgAN (P1-P20) or healthy control (C1-C20) was analyzed on SDS-PAGE gel, and stained with Coomassie.
smiles,measurement,setting,value
CO[C@H]1O[C@H](CO)[C@H](O)[C@H](O)[C@H]1NC(C)=O [α-methylGalNAc],inhibition of anti-Tn antibody (IgM) binding to Tn glycopeptide array,[1],specifically inhibited binding of the anti-Tn IgM
same,inhibition of proliferative activity of anti-Tn CICs from IgAN patients toward mesangial cells,[2]; anti-Tn CICs purified from IgAN patients pretreated with 100 mM compound,inhibits their proliferative activity toward mesangial cells; also recorded: failed to stimulate human renal mesangial cells
same,inhibition of proliferative activity of anti-Tn CICs from healthy control sera toward mesangial cells,[2]; anti-Tn CICs purified from healthy control pretreated with 100 mM compound,did not significantly inhibit mesangial cell proliferation
